Measurements reported in patent US6384187B1, “Antiproliferative activity of microsclerodermins” (Harbor Branch Oceanographic Institution, Inc., priority 1999, dated 2002).

Test system: A549 human lung adenocarcinoma cells
Assay: Immunofluorescent detection of effects on the microtubule matrix (anti-alpha-tubulin)
Format: cell-based
Protocol: Microsclerodermin compounds were evaluated as to their effects on the microtubule network of A549 human lung adenocarcinoma cells using anti-alpha-tubulin monoclonal antibodies. […] Tests were conducted to determine if the microsclerodermin compounds acted upon the cellular microtubule network in a similar fashion.
On day 1, 7.0×10^4 adherent A549 cells were cultured in TCM overnight at 37° C. in 5% CO2 on 22 mm2 coverslipsin 6-well microtiter plates. On day 2, the TCM was removed and replaced with various concentrations of the microsclerodermin compounds, or discodermolide,in TCM or TCM without drug (control) and incubated for 24 hours at 37° C. in 5% CO2. On day 3, the TCM was removed and the adhered cells were fixed in 3.7% formaldehyde solution in Dulbecco's phosphate-buffered saline (D-PBS) for 10 minutes at room temperature. The cells were then permeabilized in a 2% Triton X-100 solution in D-PBS, 2 ml per well, for 5 minutes at room temperature and washed twice in D-PBS prior to staining.
To each well containing cells attached to coverslips a 2 ml volume of mouse monoclonal anti-alpha-tubulin(Cat#T-5168, Sigma Immuno Chemicals) diluted 1:1000 in D-PBS was added and the cells incubated at room temperature for 45 minutes. The coverslips were rinsed twice with D-PBS. A 2 ml volume of goat-anti-mouse-IgG-FITC conjugate (Cat#T-5262, Sigma Immuno Chemicals) diluted at 1:1000 in D-PBS was added and the cells incubated at room temperature for 45 minutes. Coverslips were rinsed twice in D-PBS and incubated for 30 minutes at 37° C. with 1 ml/well of propidium iodide ([…]) and ribonuclease A ([…]) in D-PBS. The cover slips were rinsed three times with sterile distilled water, mounted on slides, and observed under the microscope using epifluorescence illumination for the presence of abnormal aster and microtubule bundle formation.

[1] = treated cells, concentration not given, reference agents

| Compound | abnormal aster and microtubule bundle formation [1] | abnormal aster and microtubule bundle formation (A549 cells, 5 μg/ml, 24 hours) | cell number compared with control cultures (A549 cells, 5 μg/ml, 24 hours) | cells undergoing mitosis (A549 cells, 5 μg/ml, 24 hours) | alpha-tubulin antibody staining of the microtubule matrix (A549 cells, 5 μg/ml, 24 hours, seen in some cells) |
| --- | --- | --- | --- | --- | --- |
| C=C/C=C\[C@H](C)[C@H](OC(N)=O)[C@@H](C)[C@H](O)[C@@H](C)C/C(C)=C\[C@H](C)[C@@H](O)[C@@H](C)/C=C\[C@@H](O)C[C@@H]1OC(=O)[C@H](C)[C@@H](O)[C@H]1C [discodermolide, reference compound] | abnormal formation of multiple centriolar-radiating microtubules with extensive clusters of associated microtubular “bundles” |  |  |  |  |
| CC(=O)O[C@H]1C(=O)[C@@]2(C)[C@H]([C@H](OC(=O)c3ccccc3)[C@]3(O)C[C@H](OC(=O)[C@H](O)[C@@H](NC(=O)c4ccccc4)c4ccccc4)C(C)=C1C3(C)C)[C@]1(OC(C)=O)CO[C@@H]1C[C@@H]2O [paclitaxel, reference compound] | abnormal formation of multiple centriolar-radiating microtubules with extensive clusters of associated microtubular “bundles” |  |  |  |  |
| microsclerodermin F |  | nor was there any microtubule bundling or cells with multiple asters | fewer cells than in control cultures | No cells in the culture were found to be undergoing mitosis | completely disassembled structure with a near uniform distribution throughout the cytoplasm |
